# Results reported in patent US10676430B2, “Non-alpha substituted peroxy acids and uses thereof” (Stepan Company, priority 2016, dated 2020).
# Columns and labels:
# [1] = system: Pseudomonas aeruginosa (Pa, ATCC 15442); assay: Method A: AOAC Use Dilution test for Disinfectants (Method 964.02); type: cell-based; conditions: 1 minute
# Description: (§1) In this Example, 3-HPPA was evaluated for biocidal efficacy against Sa, Pa, and Ec using three different test methods. PAA was also evaluated for biocidal efficacy for comparison. The test methods were performed using 400 ppm of hard water as diluent, in the presence of 5% organic matter.
# (§2) Method A: AOAC Use Dilution test for Disinfectants (Official Methods of Analysis. Methods 955.15—Staphylococcus aureus. Method 964.02—Pseudomonas aeruginosa. Posted September 2013). Killing efficacy is a qualitative result, reported as number of tubes showing microbial growth and total number carriers tested.
# [2] = system: Spores of Clostridium difficile (ATCC 43598); assay: Quantitative Disk Carrier Test Method (QCT-2), EPA MB-31-03, sporicidal efficacy; type: cell-based; conditions: water hardness 400 ppm
# Description: Different formulations containing 3-HPPA at different concentrations were prepared and evaluated for sporicidal efficacy against Cd. The 3-HPPA formulations were also compared to the sporicidal efficacy of different formulations containing peracetic acid (PAA). The test procedure for evaluating sporicidal efficacy was in accordance with the EPA test method in place in 2015: Quantitative Disk Carrier Test Method (QCT-2) Modified for Testing Antimicrobial Products Against Spores of Clostridium difficile (ATCC 43598) on Inanimate, Hard, Non-porous Surfaces (MB-31-03). This method mandates the presence of a high level of organic soil.
# [3] = Peracid stability by standard titration method; type: physicochemical
# Description: […] The H2O2 used is commercially available from Arkema under the tradename Perxoal 50EG and includes a small amount of stabilizer. The reaction proceeded until equilibrium was reached, in accordance with the reaction scheme recited above. The starting carboxylic acids were acetic acid, 3-hydroxy propanoic acid, 3-chloro-propanoic acid, 2-hydroxy-acetic acid (glycolic acid), 2-hydroxy-propanoic acid (lactic acid) and 2-oxo-propanoic acid. The 3-hydroxy propanoic acid and 3-chloro-propanoic acid generated non alpha-substituted peracids that are examples of the present technology. The other starting carboxylic acids generated peracids that are not within Formula 1 or Formula 2 and are comparative peracid examples.
# Each of the resulting peracids were evaluated for odor. In addition, the resulting peracids were evaluated for stability using a standard titration method known to those skilled in the art.
# [4] = system: Staphylococcus aureus (Sa, ATCC 6538); assay: Method A: AOAC Use Dilution test for Disinfectants (Method 955.15); type: cell-based; conditions: 1 minute
# Description: as §1, §2
# [5] = system: Pseudomonas aeruginosa (Pa, ATCC 15442); assay: Method A+: modified quantitative AOAC Use Dilution test; type: cell-based; conditions: 750 ppm, 1 minute, 400 ppm hard water, 5% organic matter
# Description: as §1
# (§3) Method A^+: modified quantitative AOAC Use Dilution test for Disinfectants (Official Methods of Analysis. Methods 955.15—Staphylococcus aureus. Method 964.02—Pseudomonas aeruginosa. Posted September 2013). The number of surviving organisms on each carrier was quantitatively determined after the indicated contact time. No growth observed on the solid recovery medium means no survivors present on the carriers after exposure to the antimicrobial composition. A kill rate of 99.9999% is equivalent to a 6 log kill.
# [6] = system: Staphylococcus aureus (Sa, ATCC 6538); assay: as above; type: cell-based; conditions: 750 ppm, 1 minute, 400 ppm hard water, 5% organic matter
# Description: as §1, §3
# [7] = 750 ppm, 400 ppm hard water, 5% organic matter
# [8] = reaction mixture 20.00% organic acid, 7.50% H2O2, 1.00% H2SO4, DI water
structure (smiles),measurement,setting,value
"CC(=O)OO [PAA, peracetic acid]","Efficacy outcome, EPA UDT/MB-05-13 test method",[1]; 750 ppm active,efficacious
same,Efficacy (Method A): tubes showing microbial growth / total carriers tested,[1]; [7],0/20
same,Log10 reduction,"[2]; peracid active 1844 ppm, contact time 2 minute",4.76
same,Log10 reduction,"[2]; peracid active 2500 ppm, contact time 4 minute",4.37
same,Log10 reduction,"[2]; peracid active 2500 ppm, contact time 4 minute, listed as PAA alone",<4.37
same,Log10 reduction,"[2]; peracid active 5000 ppm, contact time 4 minute",6.39
same,Peracid at day 13,"[3]; 0% H2SO4 (no acid catalyst), 17.00-20.00% organic acid, 7.8-8.5% H2O2",1.44%
same,Peracid loss/day,"[3]; 1.00% H2SO4, between day 6 and day 13",0.131%
same,Peracid at day 6,[3]; [8],2.290%
same,Peracid at day 13,[3]; [8],2.270%
same,"Efficacy outcome, EPA UDT/MB-05-13 test method",[4]; 750 ppm active,efficacious
same,Efficacy (Method A): tubes showing microbial growth / total carriers tested,[4]; [7],0/20
same,"Efficacy (Method A+), kill rate",[5],>99.9999%
same,"Efficacy (Method A+), kill rate",[6],>99.9999%
